Experimental data published in patent publication US20240226072A1 (Stichting Het Nederlands Kanker Instituut, priority 2022, published 2024).
Where two headings read alike, the source gives them in different places.

Experiment: Plasma pharmacokinetics and tissue distribution 2 h after oral cabazitaxel 10 mg/kg with vehicle or 25 mg/kg ritonavir in wild-type, Oatp1a/1b−/−, Oatp1a/1b/2b1−/−, OATP1B1- and OATP1B3-transgenic mice
Format: in vivo
Conditions: for CLiver / Cbrain / Pbrain, brain accumulation per h / SIC (% of dose), small intestinal content / Kp at 2 h: 2 h; for enhancement of AUC0-2h by ritonavir: ritonavir 25 mg/kg compared to respective vehicle group; for AUC(0-t) / Kp at 2 h / Cmax / Tmax: male, FVB, mouse; for AUC(0-t) / Cmax / Tmax: plasma; for AUC(0-t): read-out: AUC0-2 h
Experimental: All animals were fasted 2 to 3 hours prior to the start of the experiment to minimize variation in absorption after oral administration. […] Subsequently, cardiac puncture was performed with a heparinized needle and syringe collecting a final blood sample. […] All samples were stored at −30° C. until analysis.
Differences were considered statistically significant when P<0.05. All data are presented as geometric mean±SD.

[1] = OATP1B1-transgenic mice, ritonavir 25 mg/kg oral, cabazitaxel 10 mg/kg oral
[2] = OATP1B1-transgenic mice, vehicle, cabazitaxel 10 mg/kg oral
[3] = OATP1B3-transgenic mice, ritonavir 25 mg/kg oral, cabazitaxel 10 mg/kg oral
[4] = OATP1B3-transgenic mice, vehicle, cabazitaxel 10 mg/kg oral
[5] = Oatp1a/1b/2b1−/− mice, ritonavir 25 mg/kg oral, cabazitaxel 10 mg/kg oral
[6] = Oatp1a/1b/2b1−/− mice, vehicle, cabazitaxel 10 mg/kg oral
[7] = Oatp1a/1b−/− mice, ritonavir 25 mg/kg oral, cabazitaxel 10 mg/kg oral
[8] = Oatp1a/1b−/− mice, vehicle, cabazitaxel 10 mg/kg oral
[9] = po, 10 mg/kg, OATP1B1-transgenic mice, ritonavir 25 mg/kg oral, cabazitaxel 10 mg/kg oral
[10] = po, 10 mg/kg, OATP1B1-transgenic mice, vehicle pretreatment, oral 10 mg/kg cabazitaxel
[11] = po, 10 mg/kg, OATP1B1-transgenic mice, vehicle, cabazitaxel 10 mg/kg oral

CLiver [1]: 22966 pmol/g
Cbrain [1]: 275 pmol/g
Pbrain, brain accumulation per h [1]: 0.031 h⁻¹
SIC (% of dose), small intestinal content [1]: 1.93 % of dose
CLiver [2]: 3150 pmol/g
Cbrain [2]: 59.0 pmol/g
Pbrain, brain accumulation per h [2]: 0.014 h⁻¹
SIC (% of dose), small intestinal content [2]: 1.43 % of dose
CLiver [3]: 21217 pmol/g
Cbrain [3]: 245 pmol/g
Pbrain, brain accumulation per h [3]: 0.032 h⁻¹
SIC (% of dose), small intestinal content [3]: 1.06 % of dose
CLiver [4]: 2777 pmol/g
Cbrain [4]: 55.8 pmol/g
Pbrain, brain accumulation per h [4]: 0.014 h⁻¹
SIC (% of dose), small intestinal content [4]: 1.00 % of dose
enhancement of AUC0-2h by ritonavir (Oatp1a/1b/2b1−/− mice): 2.4 fold
CLiver [5]: 21464 pmol/g
Cbrain [5]: 262 pmol/g
Pbrain, brain accumulation per h [5]: 0.029 h⁻¹
SIC (% of dose), small intestinal content [5]: 1.67 % of dose
CLiver [6]: 2979 pmol/g
Cbrain [6]: 49.4 pmol/g
Pbrain, brain accumulation per h [6]: 0.013 h⁻¹
SIC (% of dose), small intestinal content [6]: 2.22 % of dose
enhancement of AUC0-2h by ritonavir (Oatp1a/1b−/− mice): 3.0 fold
CLiver [7]: 20747 pmol/g
Cbrain [7]: 323 pmol/g
Pbrain, brain accumulation per h [7]: 0.035 h⁻¹
SIC (% of dose), small intestinal content [7]: 0.91 % of dose
CLiver [8]: 2758 pmol/g
Cbrain [8]: 45.2 pmol/g
Pbrain, brain accumulation per h [8]: 0.014 h⁻¹
SIC (% of dose), small intestinal content [8]: 0.32 % of dose
AUC(0-t) (OATP1B1-transgenic (Oatp1a/1b−/− background), po, 10 mg/kg, OATP1B1-transgenic mice, ritonavir 25 mg/kg oral, cabazitaxel 10 mg/kg oral): 7.91 µM·h
AUC(0-t) (OATP1B1-transgenic (Oatp1a/1b−/− background), po, 10 mg/kg, OATP1B1-transgenic mice, vehicle, cabazitaxel 10 mg/kg oral): 3.7 µM·h
AUC(0-t) (OATP1B3-transgenic (Oatp1a/1b−/− background), po, 10 mg/kg, OATP1B3-transgenic mice, ritonavir 25 mg/kg oral, cabazitaxel 10 mg/kg oral): 6.57 µM·h
AUC(0-t) (OATP1B3-transgenic (Oatp1a/1b−/− background), po, 10 mg/kg, OATP1B3-transgenic mice, vehicle, cabazitaxel 10 mg/kg oral): 3.51 µM·h
AUC(0-t) (Oatp1a/1b/2b1−/−, po, 10 mg/kg, Oatp1a/1b/2b1−/− mice, ritonavir 25 mg/kg oral, cabazitaxel 10 mg/kg oral): 6.8 µM·h
AUC(0-t) (Oatp1a/1b/2b1−/−, po, 10 mg/kg, Oatp1a/1b/2b1−/− mice, vehicle, cabazitaxel 10 mg/kg oral): 2.88 µM·h
AUC(0-t) (Oatp1a/1b−/−, po, 10 mg/kg, Oatp1a/1b−/− mice, ritonavir 25 mg/kg oral, cabazitaxel 10 mg/kg oral): 7.89 µM·h
AUC(0-t) (Oatp1a/1b−/−, po, 10 mg/kg, Oatp1a/1b−/− mice, vehicle, cabazitaxel 10 mg/kg oral): 2.62 µM·h
Kp at 2 h (brain/plasma, po, 10 mg/kg, OATP1B1-transgenic mice, vehicle, cabazitaxel 10 mg/kg oral, read-out: Brain-to-plasma ratio): 0.054
Kp at 2 h (brain/plasma, po, 10 mg/kg, OATP1B3-transgenic mice, vehicle, cabazitaxel 10 mg/kg oral, read-out: Brain-to-plasma ratio): 0.067
Kp at 2 h (brain/plasma, po, 10 mg/kg, Oatp1a/1b/2b1−/− mice, vehicle, cabazitaxel 10 mg/kg oral, read-out: Brain-to-plasma ratio): 0.064
Kp at 2 h (brain/plasma, po, 10 mg/kg, Oatp1a/1b−/− mice, vehicle, cabazitaxel 10 mg/kg oral, read-out: Brain-to-plasma ratio): 0.064
Kp at 2 h (brain/plasma, po, 10 mg/kg, wild-type mice, vehicle, cabazitaxel 10 mg/kg oral, read-out: Brain-to-plasma ratio): 0.069
Kp at 2 h (brain/plasma, po, OATP1B1-transgenic mice, ritonavir 25 mg/kg oral, cabazitaxel 10 mg/kg oral, read-out: Brain-to-plasma ratio): 0.045
Kp at 2 h (brain/plasma, po, OATP1B3-transgenic mice, ritonavir 25 mg/kg oral, cabazitaxel 10 mg/kg oral, read-out: Brain-to-plasma ratio): 0.046
Kp at 2 h (brain/plasma, po, Oatp1a/1b/2b1−/− mice, ritonavir 25 mg/kg oral, cabazitaxel 10 mg/kg oral, read-out: Brain-to-plasma ratio): 0.047
Kp at 2 h (brain/plasma, po, Oatp1a/1b−/− mice, ritonavir 25 mg/kg oral, cabazitaxel 10 mg/kg oral, read-out: Brain-to-plasma ratio): 0.055
Kp at 2 h (brain/plasma, po, wild-type mice, ritonavir 25 mg/kg oral, cabazitaxel 10 mg/kg oral, read-out: Brain-to-plasma ratio): 0.036
Kp at 2 h (liver, oral, 10 mg/kg, OATP1B1-transgenic mice, vehicle, cabazitaxel 10 mg/kg oral, read-out: Liver-to-plasma ratio): 3.1
Kp at 2 h (liver, oral, 10 mg/kg, OATP1B3-transgenic mice, vehicle, cabazitaxel 10 mg/kg oral, read-out: Liver-to-plasma ratio): 3.61
Kp at 2 h (liver, oral, 10 mg/kg, Oatp1a/1b/2b1−/− mice, vehicle, cabazitaxel 10 mg/kg oral, read-out: Liver-to-plasma ratio): 3.84
Kp at 2 h (liver, oral, 10 mg/kg, Oatp1a/1b−/− mice, vehicle, cabazitaxel 10 mg/kg oral, read-out: Liver-to-plasma ratio): 3.95
Kp at 2 h (liver, oral, 10 mg/kg, wild-type mice, vehicle, cabazitaxel 10 mg/kg oral, read-out: Liver-to-plasma ratio): 3.93
Kp at 2 h (liver, oral, OATP1B1-transgenic mice, ritonavir 25 mg/kg oral, cabazitaxel 10 mg/kg oral, read-out: Liver-to-plasma ratio): 3.84
Kp at 2 h (liver, oral, OATP1B3-transgenic mice, ritonavir 25 mg/kg oral, cabazitaxel 10 mg/kg oral, read-out: Liver-to-plasma ratio): 4.15
Kp at 2 h (liver, oral, Oatp1a/1b/2b1−/− mice, ritonavir 25 mg/kg oral, cabazitaxel 10 mg/kg oral, read-out: Liver-to-plasma ratio): 3.95
Kp at 2 h (liver, oral, Oatp1a/1b−/− mice, ritonavir 25 mg/kg oral, cabazitaxel 10 mg/kg oral, read-out: Liver-to-plasma ratio): 3.62
Kp at 2 h (liver, oral, wild-type mice, ritonavir 25 mg/kg oral, cabazitaxel 10 mg/kg oral, read-out: Liver-to-plasma ratio): 3.32
Cmax [9]: 4670 nM
Tmax [9]: 65 min
Cmax [10]: 2730 ± 855 nM
Tmax [10]: 27.5 min
AUC(0-t) (po, 10 mg/kg, OATP1B1-transgenic mice, vehicle pretreatment, oral 10 mg/kg cabazitaxel, 0-2 h): 3.7 ± 1.23 µM·h
Cmax [11]: 2730 nM
Tmax [11]: 27.5 min
Structure (SMILES): CO[C@H]1C(=O)[C@]2(C)[C@@H](OC)C[C@H]3OC[C@@]3(OC(C)=O)[C@H]2[C@H](OC(=O)c2ccccc2)[C@]2(O)C[C@H](OC(=O)[C@H](O)[C@@H](NC(=O)OC(C)(C)C)c3ccccc3)C(C)=C1C2(C)C [cabazitaxel]
